In data set [1] the test system is LASVpv (LASV pseudotyped virus bearing LASV GPC, Josiah strain). Put plainly: microbe, parasite or virus in culture. It counts as cell-based, Lassa virus.
Another data set can be described thus: in vitro. To be noted: human.
In the next data set the target is LASV GP2 (Lassa virus, UniProt P08669). Nature of the data set: biochemical. It counts as binding. To be noted: for kon: read-out: ka.
[2] abbreviates: Mammarenavirus lassaense, HEK293, 48 h.

Read-outs that look alike come from different tables or passages of the source. A value given as a limit tells only on which side of the number the result lay.

LASV GP2, sequence (P08669 260-491 limits assumed): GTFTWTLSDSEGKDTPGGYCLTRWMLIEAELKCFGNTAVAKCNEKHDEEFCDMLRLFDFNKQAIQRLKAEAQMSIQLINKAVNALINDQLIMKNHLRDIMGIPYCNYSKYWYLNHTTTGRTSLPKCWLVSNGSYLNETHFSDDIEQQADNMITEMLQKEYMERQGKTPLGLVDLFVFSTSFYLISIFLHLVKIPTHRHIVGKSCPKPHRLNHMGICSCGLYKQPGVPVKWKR

Usually IC50 stands for the concentration at which inhibition is half-maximal. High values mean a need for much substance, low ones inhibition by little substance. What is called melting point is the temperature of the solid-liquid transition. With `CC(C)Oc1ccc(-n2cnc3cc(/C=C/c4ccc(C(C)(C)C)cc4)ccc32)cc1` [Compound 7a−E, (E)-5-(4-(tert-butyl)styryl)-1-(4-isopropoxyphenyl)-1H-benzo[d]imidazole], the melting point lay within 161 to 162 °C. Moreover, the IC50 in data set [1] (setting [2]) is > 50 nM. In “in vitro”, the CC50 is > 100000 nM.
A word on the Kd: it is the equilibrium constant for the complex coming apart. The molecule `CC(C)Oc1ccc(-n2cnc3cc(/C=C\c4ccc(C(C)(C)C)cc4)ccc32)cc1` [Compound 7a−Z, (Z)-5-(4-(tert-butyl)styryl)-1-(4-isopropoxyphenyl)-1H-benzo[d]imidazole] returned a melting point of 172 to 174 °C. On LASV GP2, the Kd came out at 146 nM, the kd stood at 0.04 s⁻¹ and the kon amounted to 328000 M⁻¹ s⁻¹. For the same molecule, in “in vitro”, the CC50 worked out at 3010 nM.
Regarding `CC(C)Oc1ccc(-n2cnc3cc(/C=C/c4ccc(C#N)cc4)ccc32)cc1` [Compound 7b−E, (E)-4-(2-(1-(4-isopropoxyphenyl)-1H-benzo[d]imidazol-5-yl)vinyl) benzonitrile], the melting point lay within 161 to 162 °C. Moreover, in data set [1] (setting [2]), the IC50 is > 50 nM. For the same molecule, the CC50 in the data set “in vitro” is > 100000 nM.
Regarding `CC(C)Oc1ccc(-n2cnc3cc(/C=C\c4ccc(C#N)cc4)ccc32)cc1` [Compound 7b−Z, (Z)-4-(2-(1-(4-isopropoxyphenyl)-1H-benzo[d]imidazol-5-yl)vinyl) benzonitrile], the melting point was 165 to 166 °C. Further, the 50% inhibitory concentration (IC50) in data set [1] (setting [2]) was > 50 nM. On LASV GP2, the Kd stood at 73400 nM, the kd is 0.28 s⁻¹ and the kon was 3910 M⁻¹ s⁻¹. In “in vitro”, this molecule displayed a CC50 of 23600 nM.
In the case of `Cc1ccc(/C=C/c2ccc3c(c2)ncn3-c2ccc(OC(C)C)cc2)cc1` [Compound 7c−E, (E)-1-(4-isopropoxyphenyl)-5-(4-methylstyryl)-1H-benzo[d]imidazole], the melting point is 168 to 170 °C. Moreover, the IC50 in data set [1] (setting [2]) was > 50 nM. Further, the CC50 in the data set “in vitro” is > 100000 nM.
On to `Cc1ccc(/C=C\c2ccc3c(c2)ncn3-c2ccc(OC(C)C)cc2)cc1` [Compound 7c−Z, (Z)-1-(4-isopropoxyphenyl)-5-(4-methylstyryl)-1H-benzo[d]imidazole], for which the melting point fell in the range of 168 to 169 °C. This molecule returned an IC50 in data set [1] (setting [2]) of 36.9 nM. Also, on LASV GP2, binding was put at a Kd of 1180 nM, the kd amounted to 0.07 s⁻¹ and the kon came to 65600 M⁻¹ s⁻¹. The same molecule registered a CC50 in “in vitro” of 20900 nM.
Regarding `CCOc1ccc(/C=C/c2ccc3c(c2)ncn3-c2ccc(OC(C)C)cc2)cc1` [Compound 7d−E, (E)-5-(4-ethoxystyryl)-1-(4-isopropoxyphenyl)-1H-benzo[d]imidazole], the melting point was in the range of 152 to 153 °C. The IC50 in data set [1] (setting [2]) is > 50 nM. In the data set “in vitro”, the CC50 was > 100000 nM.
With `CCOc1ccc(/C=C\c2ccc3c(c2)ncn3-c2ccc(OC(C)C)cc2)cc1` [Compound 7d−Z, (Z)-5-(4-ethoxystyryl)-1-(4-isopropoxyphenyl)-1H-benzo[d]imidazole], the melting point was in the range of 161 to 162 °C. This molecule also displayed an IC50 in data set [1] of 13.6 nM. Further, the half-maximal inhibitory concentration (IC50) in data set [1] (setting [2]) was ≤ 15 nM. Besides, on LASV GP2, the Kd came out at 307 nM, the kd is 0.02 s⁻¹ and the kon stood at 86500 M⁻¹ s⁻¹. In “in vitro”, this molecule showed a CC50 of 17000 nM.
With `CC(C)Oc1ccc(-n2cnc3cc(/C=C/c4ccc(OC(F)F)cc4)ccc32)cc1` [Compound 7e−E, (E)-5-(4-(difluoromethoxy)styryl)-1-(4-isopropoxyphenyl)-1H-benzo[d]imidazole], the melting point is 173 to 174 °C. The half-inhibitory concentration (IC50) in data set [1] (setting [2]) is > 50 nM. Moreover, in the data set “in vitro”, the CC50 was > 100000 nM.
Take `CC(C)Oc1ccc(-n2cnc3cc(/C=C\c4ccc(OC(F)F)cc4)ccc32)cc1` [Compound 7e−Z, (Z)-5-(4-(difluoromethoxy)styryl)-1-(4-isopropoxyphenyl)-1H-benzo[d]imidazole]: the melting point lay within 173 to 174 °C. The same molecule gave a 50% inhibitory concentration (IC50) in data set [1] (setting [2]) of 34.4 nM. In addition, at LASV GP2, the Kd worked out at 1980 nM, the kd came out at 0.08 s⁻¹ and the kon worked out at 43400 M⁻¹ s⁻¹. For the same molecule, in “in vitro”, the CC50 came to 17900 nM.
For `CC(C)Oc1ccc(-n2cnc3cc(/C=C/c4ccc(OC(F)(F)F)cc4)ccc32)cc1` [Compound 7f−E, (E)-1-(4-isopropoxyphenyl)-5-(4-(trifluoromethoxy)styryl)-1H-benzo[d]imidazole], the melting point lay in the range of 160 to 162 °C. In addition, in data set [1] (setting [2]), the IC50 is > 50 nM. Besides, the CC50 in “in vitro” was > 100000 nM.
With `CC(C)Oc1ccc(-n2cnc3cc(/C=C\c4ccc(OC(F)(F)F)cc4)ccc32)cc1` [Compound 7f−Z, (Z)-1-(4-isopropoxyphenyl)-5-(4-(trifluoromethoxy)styryl)-1H-benzo[d]imidazole], the melting point lay within 161 to 162 °C. In data set [1] (setting [2]), this molecule gave an IC50 of 33.9 nM. Also, on LASV GP2, the Kd is 2190 nM, the kd was 0.03 s⁻¹ and the kon was found to be 15600 M⁻¹ s⁻¹. Moreover, in the data set “in vitro”, the CC50 turned out to be 9470 nM.
For the molecule `CC(C)Oc1ccc(-n2cnc3cc(/C=C/c4ccc(C(F)(F)F)cc4)ccc32)cc1` [Compound 7g−E, (E)-1-(4-isopropoxyphenyl)-5-(4-(trifluoromethyl)styryl)-1H-benzo[d]imidazole], the melting point fell in the range of 166 to 167 °C. Also, the IC50 in data set [1] (setting [2]) is > 50 nM. The CC50 in the data set “in vitro” was > 100000 nM.
`CC(C)Oc1ccc(-n2cnc3cc(/C=C\c4ccc(C(F)(F)F)cc4)ccc32)cc1` [Compound 7g−Z, (Z)-1-(4-isopropoxyphenyl)-5-(4-(trifluoromethyl)styryl)-1H-benzo[d]imidazole] had a melting point of 165 to 166 °C. The molecule also registered a half-inhibitory concentration (IC50) in data set [1] (setting [2]) of 29.1 nM. On LASV GP2, this molecule yielded a dissociation constant (Kd) of 2700 nM and a kd of 0.13 s⁻¹. In “in vitro”, this molecule displayed a CC50 of 24400 nM.
On to `CC(C)Oc1ccc(-n2cnc3cc(/C=C/c4ccc5ccccc5c4)ccc32)cc1` [Compound 7h−E, (E)-1-(4-isopropoxyphenyl)-5-(2-(naphthalen-2-yl)vinyl)-1H-benzo[d]imidazole], for which the melting point lay within 172 to 173 °C. Moreover, the IC50 in data set [1] (setting [2]) was > 50 nM. Besides, the CC50 in the data set “in vitro” is > 100000 nM.
`CC(C)Oc1ccc(-n2cnc3cc(/C=C\c4ccc5ccccc5c4)ccc32)cc1` [Compound 7h−Z, (Z)-1-(4-isopropoxyphenyl)-5-(2-(naphthalene-2-yl)vinyl)-1H-benzo[d]imidazole] returned a melting point of 170 to 171 °C. Further, the half-maximal inhibitory concentration (IC50) in data set [1] turned out to be 7.58 nM. Also, in data set [1] (setting [2]), the 50% inhibitory concentration (IC50) was ≤ 15 nM. At LASV GP2, the affinity, expressed as Kd, was 129 nM; the kd was 0.03 s⁻¹; the kon was found to be 294000 M⁻¹ s⁻¹. In “in vitro”, this molecule had a CC50 of 18900 nM.
Molecule `COc1ccc(-n2cnc3cc(NCc4ccc(OC)c(O)c4)ccc32)cc1` [Compound 13a, 2-methoxy-5-(((1-(4-methoxyphenyl)-1H-benzo[d]imidazol-5-yl)amino)methyl)phenol] registered a melting point of 182.1 to 183.3 °C. Besides, 47.6 nM corresponded to half-maximal inhibition in data set [1] (setting [2]) (IC50). Moreover, on LASV GP2, binding was put at a Kd of 2780 nM, the kd was determined as 0.03 s⁻¹ and the kon was 13200 M⁻¹ s⁻¹. In “in vitro”, this molecule registered a CC50 of 62600 nM.
In turn, `COc1ccc(-n2cnc3cc(NCc4ccc(O)c(OC)c4)ccc32)cc1` [Compound 13b, 2-methoxy-4-(((1-(4-methoxyphenyl)-1H-benzo[d]imidazol-5-yl)amino)methyl)phenol] yielded a melting point of 157.6 to 159 °C. Moreover, in data set [1] (setting [2]), the IC50 was 65.8 nM. Moreover, at LASV GP2, the equilibrium dissociation constant (Kd) was determined as 3930 nM, the kd came out at 0.20 s⁻¹ and the kon amounted to 52300 M⁻¹ s⁻¹. In the data set “in vitro”, this molecule returned a CC50 of 87300 nM.
`COc1ccc(-n2cnc3cc(NCc4cc(OC)c(OC)cc4OC)ccc32)cc1` [Compound 13d, 1-(4-methoxyphenyl)-N-(2,4,5-trimethoxybenzyl)-1H-benzo[d]imidazol-5-amine] gave a melting point of 167.8 to 169.8 °C. For the same molecule, in data set [1] (setting [2]), the IC50 came out at 13.8 nM. Further, at LASV GP2, the Kd was 656 nM, the kd turned out to be 0.03 s⁻¹ and the kon was determined as 56700 M⁻¹ s⁻¹. The same molecule displayed a CC50 in the data set “in vitro” of 135000 nM.
`COc1ccc(-n2cnc3cc(NCc4cc(OC)c(O)c(OC)c4)ccc32)cc1` [Compound 13e, 2,6-dimethoxy-4-(((1-(4-methoxyphenyl)-1H-benzo[d]imidazol-5-yl)amino)methyl)phenol] gave a melting point of 115.7 to 118.1 °C. In data set [1] (setting [2]), the half-inhibitory concentration (IC50) is 50.5 nM. In addition, at LASV GP2, the equilibrium dissociation constant (Kd) was determined as 4390 nM, the kd worked out at 0.22 s⁻¹ and the kon was found to be 50300 M⁻¹ s⁻¹. Further, the CC50 in the data set “in vitro” was 88800 nM.
`COc1ccc(-n2cnc3cc(NCc4ccc(C(C)(C)C)cc4)ccc32)cc1` [Compound 13f, N-(4-(tert-butyl)benzyl)-1-(4-methoxyphenyl)-1H-benzo[d]imidazol-5-amine]: the melting point fell in the range of 175.8 to 176.9 °C. Half-maximal inhibition in data set [1] (setting [2]) (IC50) required 11.9 nM. Moreover, at LASV GP2, binding was characterised by a dissociation constant (Kd) of 173 nM, the kd was determined as 0.03 s⁻¹ and the kon came out at 178000 M⁻¹ s⁻¹. The molecule also returned a CC50 in “in vitro” of 102000 nM.
In the case of `COc1ccc(CNc2ccc3c(c2)ncn3-c2ccc(OC)cc2)cc1` [Compound 13g, N-(4-methoxybenzyl)-1-(4-methoxyphenyl)-1H-benzo[d]imidazol-5-amine], the melting point fell in the range of 128 to 129.3 °C. The molecule further showed an IC50 in data set [1] (setting [2]) of 55.4 nM. Further, on LASV GP2, the equilibrium dissociation constant (Kd) worked out at 4690 nM, the kd came out at 0.30 s⁻¹ and the kon came to 65900 M⁻¹ s⁻¹. For the same molecule, the CC50 in the data set “in vitro” was determined as 100000 nM.
The molecule `COc1ccc(-n2cnc3cc(NCc4cccc(O)c4)ccc32)cc1` [Compound 13h, 3-(((1-(4-methoxyphenyl)-1H-benzo[d]imidazol-5-yl)amino)methyl)phenol] displayed a melting point of 182.9 to 184.3 °C. In addition, the half-maximal inhibitory concentration (IC50) in data set [1] (setting [2]) is > 100 nM. At LASV GP2, binding was put at a Kd of 36000 nM, the kd was 0.42 s⁻¹ and the kon was determined as 11900 M⁻¹ s⁻¹. For the same molecule, in the data set “in vitro”, the CC50 stood at 40300 nM.
The molecule `COc1ccc(-n2cnc3cc(NCc4ccc(C(C)C)cc4)ccc32)cc1` [ST−193, reference compound] registered an IC50 in data set [1] (setting [2]) of 44.5 nM. For the same molecule, on LASV GP2, the dissociation constant Kd was determined as 200 nM, the kd is 0.01 s⁻¹ and the kon came to 83200 M⁻¹ s⁻¹. The CC50 in “in vitro” came to 56300 nM.
